The values below come from patent publication US6306636A, “Nucleic acid segments encoding wheat acetyl-CoA carboxylase” (Arch Development Corporation, priority 1997, dated 2001).

Bounds are passed on as bounds.

In assay [1] the target is T1, enzyme from pea chloroplasts (ACCase) (Pisum sativum, UniProt P18823+Q41008).
T1 construct: the enzyme from pea chloroplasts is relatively resistant; from tissue; host or cells: pea chloroplasts
T1 sequence (P18823 1-590): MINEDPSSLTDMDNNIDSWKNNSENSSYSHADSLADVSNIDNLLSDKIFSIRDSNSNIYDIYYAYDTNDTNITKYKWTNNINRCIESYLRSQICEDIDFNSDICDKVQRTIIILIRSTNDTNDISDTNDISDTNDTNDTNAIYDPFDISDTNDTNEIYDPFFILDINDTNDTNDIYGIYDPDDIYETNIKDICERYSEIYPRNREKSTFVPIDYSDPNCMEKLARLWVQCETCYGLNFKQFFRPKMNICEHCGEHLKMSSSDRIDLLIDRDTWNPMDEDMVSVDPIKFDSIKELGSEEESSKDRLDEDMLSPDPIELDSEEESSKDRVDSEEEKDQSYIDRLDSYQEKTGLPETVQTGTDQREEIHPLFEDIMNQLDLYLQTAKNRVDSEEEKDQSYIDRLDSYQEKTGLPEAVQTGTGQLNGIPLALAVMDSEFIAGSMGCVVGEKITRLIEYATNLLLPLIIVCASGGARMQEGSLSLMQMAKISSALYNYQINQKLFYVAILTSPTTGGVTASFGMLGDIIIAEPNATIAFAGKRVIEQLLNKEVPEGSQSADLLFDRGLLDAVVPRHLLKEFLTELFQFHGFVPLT
T1 sequence (Q41008 51-875): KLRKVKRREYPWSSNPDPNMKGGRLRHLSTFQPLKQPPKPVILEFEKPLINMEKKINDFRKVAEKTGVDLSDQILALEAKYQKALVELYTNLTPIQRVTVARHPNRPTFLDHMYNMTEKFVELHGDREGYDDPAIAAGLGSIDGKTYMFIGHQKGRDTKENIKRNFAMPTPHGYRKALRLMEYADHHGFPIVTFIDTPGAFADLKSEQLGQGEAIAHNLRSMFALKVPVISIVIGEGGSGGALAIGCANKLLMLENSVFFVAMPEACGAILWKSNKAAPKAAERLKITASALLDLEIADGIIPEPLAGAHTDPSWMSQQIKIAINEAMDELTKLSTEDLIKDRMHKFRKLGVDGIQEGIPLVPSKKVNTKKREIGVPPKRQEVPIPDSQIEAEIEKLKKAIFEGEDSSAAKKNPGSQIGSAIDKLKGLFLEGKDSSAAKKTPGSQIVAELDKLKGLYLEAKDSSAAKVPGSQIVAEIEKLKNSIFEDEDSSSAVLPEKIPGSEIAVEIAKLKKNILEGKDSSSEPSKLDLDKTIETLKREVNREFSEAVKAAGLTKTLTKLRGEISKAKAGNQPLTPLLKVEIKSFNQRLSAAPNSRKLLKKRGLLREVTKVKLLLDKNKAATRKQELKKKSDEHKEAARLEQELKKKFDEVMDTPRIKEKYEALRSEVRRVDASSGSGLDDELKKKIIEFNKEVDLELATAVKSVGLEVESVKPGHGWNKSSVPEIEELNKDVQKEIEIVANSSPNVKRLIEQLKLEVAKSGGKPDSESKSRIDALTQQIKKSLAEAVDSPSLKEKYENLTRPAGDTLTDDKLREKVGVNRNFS
As to the kind of experiment: In vitro ACCase activity assay, pea chloroplast enzyme. The settings on record: read-out: 50% inhibition of ACCase activity. In kind it is biochemical.

The test system of assay [2] is strain MJ 1.12 expressing wheat cytosolic ACCase. As to the kind of experiment: In vivo growth inhibition of yeast gene-replacement strain expressing wheat cytosolic ACCase. In kind it is cell-based, S. cerevisiae. The settings on record: for effect on growth of gene-replacement strain (in vivo): MJ 1.12, liquid culture, YPR medium with 0.01% galactose. The procedure: The yeast complex medium for vegetative growth contained 1% Bacto-yeast extract, 2% Bacto-peptone, 0.1% adenine sulfate and was supplemented with the following carbon sources: 2% Dextrose in YPD, 2% Raffinose in YPR, 2% galactose and 2% raffinose in YPRG. The yeast synthetic minimal medium (SD) contained 0.17% yeast nitrogen base, 0.5% ammonium sulfate, 2% dextrose, and was supplemented with various additives required for growth: adenine sulfate (10 mg/L), uracil (20 mg/L), histidine (20 mg/L), leucine (200 mg/L) and/or tryptophane (50 mg/L). The SRG medium is identical to SD, with dextrose replaced by 2% raffinose and 2% galactose. 2% bacto-agar was used in solid media. SPII (2% potassium acetate, supplemented with essential amino acids at 7.5 mg/L) and SPIII (0.1% bacto-yeast extract and 2% bacto-agar added to SPII) media for sporulation are described in (Klapholz and Esposito, 1982; Klapholz et al;. 1985). S. cerevisiae strain W303D-ACC1^ΔLEU2 was also obtained from Dr. S. D. Kohlwein. Yeast cells were transformed as described before (Chen et al., 1992) using Frozen-ELZ kit (Zymo Research, Orange Calif.) according to the manufacturer's protocol and transformants were selected using SD plates lacking a marker amino acid. Sporulation was induced in SPII or SPIII medium at 30° C. for 2-3 days. Dissection of asci was performed as described (Guthrie and Fink, 1991). YPD or YPRG plates were used for vegetative growth of ascospore clones following dissection. Galactose-dependent strains (MJ 6.8, 6.9, 1.12 and 1.13) were grown in YPRG medium and other strains in YPD medium, all at 30° C. To measure galactose induction, the strains were grown for ~24 h in YPR medium until all galactose was exhausted (growth of galactose-dependent strains ceased), and then diluted ~100 fold with YPR medium containing various amounts of galactose.
(§1) Sethoxydim and Cethoxydim (CGA215684) were obtained from CIBA-GEIGY and haloxyfop was obtained from DowElanco. To measure inhibition in vivo, galactose-dependent strains were grown in YPR containing 0.01% galactose (to A600 of ~0.5) and then diluted (~100 fold) to the same initial density with fresh YPR medium containing 0.01% galactose and varying amounts of herbicide added as 100-fold concentrated stock solutions in DMSO. ACCase activity in vitro was measured using protein extracts prepared as described (Mitchell et al., 1993) from 25-50 ml cultures of yeast strains MJ 1.12 and MG 9.11 grown for 24-40 h. Cells were suspended in one volume of extraction buffer (0.3 M sorbitol, 0.1 M NaCl, 5 mM MgCl2, 10 mM Tris pH 7.4, supplemented with protease inhibitors: aprotinin (6.6 μ/mL), leupeptin (1.5 μ/mL), pepstatin A (3 μ/mL) and chymostatin (1 μg/mL), and vortexed with 2 volumes of glass beads for 5 min at 4° C. 1/200 volume of 100 mM ethanol solution of phenylmethylsulfonyl fluoride was added twice during extraction. The cell debris were removed by centrifugation and the supenatant (~0.5 ml) was loaded immediately on a 20 ml Sephadex G50 column equilibrated with 100 mM KCl, 20 mM Tris/HCl (pH 7.5), 20% glycerol, 7 mM β-mercaptoethanol. Protein was eluted with the same buffer and stored at -70° C. ACCase activity was measured as described before (Gornicki and Haselkorn, 1993) using aliquots of the column fractions. Herbicides were added to the reaction mixtures (1/10 or 1/20 volume) as a solution in 0.25-0.75 M Tris-HCl, pH8.0 containing 25% DMSO. Wheat germ extract was purchased from Promega.

For assay [3], the system named is wheat seedling leaves (ACCase, fatty acid synthesis). As to the kind of experiment: In vivo incorporation of 14C-acetate into fatty acids in cut wheat seedling leaves. On the set-up: species or system wheat (Triticum aestivum cv. Era). The settings on record: Triticum aestivum; freshly cut wheat seedling leaves, 4-6 h; read-out: 50% inhibition of in vivo incorporation of 14C-acetate into fatty acids. The procedure: For the in vivo assay of ACCase activity, 2-week old seedlings of wheat (Triticum aestivum cv. Era) were cut about 1 cm below the first leaf and transferred to a 1.5 ml micro tube containing ^14 C-sodium acetate and haloxyfop (Tris salt) for 4-6 h. The leaves were then cut into small pieces and treated with 0.5 ml of 40% KOH for 1 h at 70° C., and then with 0.3 ml of H2 SO4 and 20 μl of 30% TCA on ice. Fatty acids were extracted with three 0.5 ml aliquots of petroleum ether. The organic phase was washed with 1 ml of water. Incorporation of ^14 C-acetate into fatty acids is expressed as the percentage of the total radioactivity taken up by the seedlings. present in the organic phase.

The target of assay [4] is T2, wheat plastid ACCase (wheat germ extract) (Triticum aestivum, UniProt O48959).
T2 construct: mixed homoeologues, some cytosolic ACCase present
The settings on record: shown previously (Gornicki and Haselkorn, 1993); cited from earlier work.

Assay [5] relates to strain MJ 9.11 expressing yeast ACCase (ACC1). The experiment in a line: In vivo growth inhibition of yeast strain expressing yeast ACCase. In kind it is cell-based, S. cerevisiae. As to conditions: MJ 9.11, 800 μM inhibitor. The procedure: The yeast complex medium for vegetative growth contained 1% Bacto-yeast extract, 2% Bacto-peptone, 0.1% adenine sulfate and was supplemented with the following carbon sources: 2% Dextrose in YPD, 2% Raffinose in YPR, 2% galactose and 2% raffinose in YPRG. The yeast synthetic minimal medium (SD) contained 0.17% yeast nitrogen base, 0.5% ammonium sulfate, 2% dextrose, and was supplemented with various additives required for growth: adenine sulfate (10 mg/L), uracil (20 mg/L), histidine (20 mg/L), leucine (200 mg/L) and/or tryptophane (50 mg/L). The SRG medium is identical to SD, with dextrose replaced by 2% raffinose and 2% galactose. 2% bacto-agar was used in solid media. SPII (2% potassium acetate, supplemented with essential amino acids at 7.5 mg/L) and SPIII (0.1% bacto-yeast extract and 2% bacto-agar added to SPII) media for sporulation are described in (Klapholz and Esposito, 1982; Klapholz et al;. 1985). […]
Sethoxydim and Cethoxydim (CGA215684) were obtained from CIBA-GEIGY and haloxyfop was obtained from DowElanco. […] ACCase activity in vitro was measured using protein extracts prepared as described (Mitchell et al., 1993) from 25-50 ml cultures of yeast strains MJ 1.12 and MG 9.11 grown for 24-40 h. […] ACCase activity was measured as described before (Gornicki and Haselkorn, 1993) using aliquots of the column fractions. […]

In assay [6] the test system is T3, wheat cytosolic ACCase expressed in yeast.
T3 construct: Full length cDNA encoding wheat cytosolic ACCase was assembled; made in house; host or cells: S. cerevisiae haploid gene-replacement strain MJ 1.12 (crude extract, Sephadex G50)
The experiment in a line: In vitro inhibition of wheat cytosolic ACCase expressed in yeast (gel-filtered crude extract). In kind it is biochemical. The procedure:
as §1, with “Protein was eluted with the same buffer and stored at -70° C.” left out, “Herbicides were added to the reaction mixtures (1/10 or 1/20 volume) as a solution in 0.25-0.75 M Tris-HCl, pH8.0 containing 25% DMSO. Wheat germ extract was purchased from Promega.” left out

The target in assay [7] is T2, wheat plastid ACCase (wheat germ extract). As to the kind of experiment: In vitro inhibition of ACCase in wheat germ extract. In kind it is biochemical. As to conditions: wheat plastid enzyme in wheat germ extract. The procedure:
as §1, with “Protein was eluted with the same buffer and stored at -70° C.” left out, “Herbicides were added to the reaction mixtures (1/10 or 1/20 volume) as a solution in 0.25-0.75 M Tris-HCl, pH8.0 containing 25% DMSO. Wheat germ extract was purchased from Promega.” left out

The next assay has as its target T4, yeast ACCase (Saccharomyces cerevisiae, UniProt Q00955).
T4 construct: containing one copy of the yeast ACC1 gene (on the chromosome) and expressing ACCase under its own promoter; endogenous in cells; host or cells: S. cerevisiae haploid strain MJ 9.11 (W303D-derived), crude extract, Sephadex G50
The experiment in a line: In vitro inhibition of yeast ACCase (gel-filtered crude extract). In kind it is biochemical, S. cerevisiae. The procedure: as §1, with “Protein was eluted with the same buffer and stored at -70° C.” left out, “Herbicides were added to the reaction mixtures (1/10 or 1/20 volume) as a solution in 0.25-0.75 M Tris-HCl, pH8.0 containing 25% DMSO. Wheat germ extract was purchased from Promega.” left out

Assay [8] deals with maize ACCase, first minor peak. As to conditions: 50 μM; first minor peak (Howard and Ridley, 1990); cited from earlier work.

T2 sequence (O48959 1-2311): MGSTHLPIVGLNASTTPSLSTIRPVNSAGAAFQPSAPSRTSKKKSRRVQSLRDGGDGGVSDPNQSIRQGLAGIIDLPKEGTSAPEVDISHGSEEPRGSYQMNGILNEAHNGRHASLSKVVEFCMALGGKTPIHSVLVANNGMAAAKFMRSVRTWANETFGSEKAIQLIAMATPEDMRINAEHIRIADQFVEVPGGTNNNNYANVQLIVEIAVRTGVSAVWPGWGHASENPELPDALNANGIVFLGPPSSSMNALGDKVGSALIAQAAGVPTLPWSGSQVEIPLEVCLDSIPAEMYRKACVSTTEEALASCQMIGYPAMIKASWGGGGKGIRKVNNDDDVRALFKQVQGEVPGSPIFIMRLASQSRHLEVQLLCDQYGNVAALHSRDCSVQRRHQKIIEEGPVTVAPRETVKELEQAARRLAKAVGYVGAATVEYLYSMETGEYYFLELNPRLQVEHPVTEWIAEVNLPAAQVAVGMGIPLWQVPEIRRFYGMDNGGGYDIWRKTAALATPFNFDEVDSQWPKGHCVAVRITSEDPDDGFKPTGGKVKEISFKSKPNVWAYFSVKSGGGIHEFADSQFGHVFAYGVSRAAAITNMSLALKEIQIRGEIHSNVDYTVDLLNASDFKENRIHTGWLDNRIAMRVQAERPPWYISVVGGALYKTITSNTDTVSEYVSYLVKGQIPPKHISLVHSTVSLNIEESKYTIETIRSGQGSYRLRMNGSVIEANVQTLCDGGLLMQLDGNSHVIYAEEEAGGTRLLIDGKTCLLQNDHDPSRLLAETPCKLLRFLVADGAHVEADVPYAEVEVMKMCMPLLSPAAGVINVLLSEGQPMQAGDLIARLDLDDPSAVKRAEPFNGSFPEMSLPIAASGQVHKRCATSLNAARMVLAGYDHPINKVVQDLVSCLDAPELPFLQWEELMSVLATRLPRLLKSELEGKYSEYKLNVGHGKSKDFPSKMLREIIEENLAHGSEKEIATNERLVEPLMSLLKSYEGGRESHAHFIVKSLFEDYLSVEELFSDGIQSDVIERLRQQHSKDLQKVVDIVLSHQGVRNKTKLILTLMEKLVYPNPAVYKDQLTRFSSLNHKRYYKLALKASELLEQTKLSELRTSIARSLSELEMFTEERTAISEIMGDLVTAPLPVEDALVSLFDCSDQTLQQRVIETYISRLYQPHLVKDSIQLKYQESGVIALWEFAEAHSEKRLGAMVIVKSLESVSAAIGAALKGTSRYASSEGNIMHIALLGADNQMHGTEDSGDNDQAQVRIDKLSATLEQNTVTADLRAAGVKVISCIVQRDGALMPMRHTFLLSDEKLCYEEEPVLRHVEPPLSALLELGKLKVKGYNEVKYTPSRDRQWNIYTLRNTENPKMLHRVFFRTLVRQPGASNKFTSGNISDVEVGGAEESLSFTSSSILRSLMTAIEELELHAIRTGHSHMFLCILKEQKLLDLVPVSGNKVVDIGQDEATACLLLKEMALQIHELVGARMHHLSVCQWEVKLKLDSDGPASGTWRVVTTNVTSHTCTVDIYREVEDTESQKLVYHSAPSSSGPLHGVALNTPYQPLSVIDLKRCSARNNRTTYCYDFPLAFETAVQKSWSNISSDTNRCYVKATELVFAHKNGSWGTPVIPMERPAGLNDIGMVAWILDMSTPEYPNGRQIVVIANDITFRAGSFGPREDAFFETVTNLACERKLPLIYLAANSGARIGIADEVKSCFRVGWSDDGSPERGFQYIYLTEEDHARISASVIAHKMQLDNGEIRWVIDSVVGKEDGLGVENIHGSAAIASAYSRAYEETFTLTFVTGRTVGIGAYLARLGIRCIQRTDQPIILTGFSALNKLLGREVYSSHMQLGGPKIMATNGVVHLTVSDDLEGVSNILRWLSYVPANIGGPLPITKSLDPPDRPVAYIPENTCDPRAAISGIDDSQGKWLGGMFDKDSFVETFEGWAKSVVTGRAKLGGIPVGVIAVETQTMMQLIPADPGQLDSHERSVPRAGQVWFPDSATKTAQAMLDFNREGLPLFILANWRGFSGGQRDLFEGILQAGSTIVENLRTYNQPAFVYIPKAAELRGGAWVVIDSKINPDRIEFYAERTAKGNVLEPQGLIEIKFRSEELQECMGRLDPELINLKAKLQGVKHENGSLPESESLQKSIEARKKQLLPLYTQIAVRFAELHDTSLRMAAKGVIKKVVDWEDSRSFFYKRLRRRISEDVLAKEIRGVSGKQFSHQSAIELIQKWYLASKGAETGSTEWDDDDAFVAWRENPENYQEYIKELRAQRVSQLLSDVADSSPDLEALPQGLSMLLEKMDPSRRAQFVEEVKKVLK
T3 sequence (Q38970 whole entry): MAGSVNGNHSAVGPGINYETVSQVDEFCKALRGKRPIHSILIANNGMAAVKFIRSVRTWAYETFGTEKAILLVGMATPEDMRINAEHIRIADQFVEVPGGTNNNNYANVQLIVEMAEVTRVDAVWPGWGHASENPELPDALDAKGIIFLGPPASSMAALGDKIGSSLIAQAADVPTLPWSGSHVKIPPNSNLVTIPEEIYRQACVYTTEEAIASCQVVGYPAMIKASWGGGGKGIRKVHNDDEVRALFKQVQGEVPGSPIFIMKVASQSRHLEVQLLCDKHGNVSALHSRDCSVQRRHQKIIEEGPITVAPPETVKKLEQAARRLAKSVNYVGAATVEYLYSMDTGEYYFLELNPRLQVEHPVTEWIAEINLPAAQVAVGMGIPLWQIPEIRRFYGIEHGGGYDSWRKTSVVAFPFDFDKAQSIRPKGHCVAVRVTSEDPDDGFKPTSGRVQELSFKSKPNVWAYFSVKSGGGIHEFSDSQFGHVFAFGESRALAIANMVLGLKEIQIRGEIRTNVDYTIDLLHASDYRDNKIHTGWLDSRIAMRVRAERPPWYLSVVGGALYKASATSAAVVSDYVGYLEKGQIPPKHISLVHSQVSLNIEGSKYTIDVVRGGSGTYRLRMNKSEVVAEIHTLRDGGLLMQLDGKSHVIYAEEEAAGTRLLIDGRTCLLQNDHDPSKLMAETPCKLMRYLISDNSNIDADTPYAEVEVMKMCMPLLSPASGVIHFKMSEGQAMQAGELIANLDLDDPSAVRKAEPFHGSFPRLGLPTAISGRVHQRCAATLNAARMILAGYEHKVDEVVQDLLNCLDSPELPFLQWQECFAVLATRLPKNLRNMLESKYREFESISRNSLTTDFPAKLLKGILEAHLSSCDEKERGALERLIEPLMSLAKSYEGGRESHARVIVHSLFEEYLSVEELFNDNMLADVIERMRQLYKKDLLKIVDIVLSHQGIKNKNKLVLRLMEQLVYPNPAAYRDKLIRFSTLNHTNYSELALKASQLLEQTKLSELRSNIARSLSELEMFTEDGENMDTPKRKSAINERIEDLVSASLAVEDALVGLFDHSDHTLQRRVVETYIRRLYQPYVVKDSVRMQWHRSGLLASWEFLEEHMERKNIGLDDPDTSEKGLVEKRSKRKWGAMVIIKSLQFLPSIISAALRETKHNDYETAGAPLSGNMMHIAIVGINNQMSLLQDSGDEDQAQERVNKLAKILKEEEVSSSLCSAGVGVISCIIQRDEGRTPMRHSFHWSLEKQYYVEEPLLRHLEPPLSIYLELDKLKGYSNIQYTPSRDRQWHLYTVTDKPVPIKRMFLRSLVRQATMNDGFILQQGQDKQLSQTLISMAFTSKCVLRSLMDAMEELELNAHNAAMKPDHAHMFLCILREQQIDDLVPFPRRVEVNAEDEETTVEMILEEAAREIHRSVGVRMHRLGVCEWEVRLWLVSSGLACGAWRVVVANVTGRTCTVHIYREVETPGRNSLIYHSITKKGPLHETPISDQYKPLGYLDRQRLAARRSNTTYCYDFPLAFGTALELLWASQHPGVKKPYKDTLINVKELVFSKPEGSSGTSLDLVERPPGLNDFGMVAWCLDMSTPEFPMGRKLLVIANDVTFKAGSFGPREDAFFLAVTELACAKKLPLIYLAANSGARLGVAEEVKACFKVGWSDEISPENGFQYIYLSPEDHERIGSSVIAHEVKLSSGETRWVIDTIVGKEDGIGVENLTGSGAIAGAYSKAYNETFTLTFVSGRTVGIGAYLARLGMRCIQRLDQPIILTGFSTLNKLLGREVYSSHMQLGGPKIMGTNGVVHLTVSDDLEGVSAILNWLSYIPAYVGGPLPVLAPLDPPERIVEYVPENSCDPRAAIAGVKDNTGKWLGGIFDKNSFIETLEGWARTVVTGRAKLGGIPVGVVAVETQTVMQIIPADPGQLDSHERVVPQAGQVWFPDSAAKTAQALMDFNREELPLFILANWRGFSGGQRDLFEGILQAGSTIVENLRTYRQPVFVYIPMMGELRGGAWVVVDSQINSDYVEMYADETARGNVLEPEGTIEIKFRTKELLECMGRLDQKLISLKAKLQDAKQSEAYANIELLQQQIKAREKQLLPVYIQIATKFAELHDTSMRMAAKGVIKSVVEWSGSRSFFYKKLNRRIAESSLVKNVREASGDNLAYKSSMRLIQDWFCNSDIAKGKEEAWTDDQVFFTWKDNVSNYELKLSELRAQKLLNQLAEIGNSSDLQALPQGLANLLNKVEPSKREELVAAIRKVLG

Regarding `CC(Oc1ccc(Oc2ncc(C(F)(F)F)cc2Cl)cc1)C(=O)O` (stereo not shown) [haloxyfop], the IC50 in assay [1] is above 50 µM; in [3] it was below 1 µM. For the same compound, the “effect on growth of gene-replacement strain (in vivo)” value (“effect on growth” below) in assay [2] is listed as “no effect”. Moreover, in assay [4], the “sensitivity of ACCase activity to inhibitor” value is “highly sensitive”.
On to `CCC(=NOCC=CCl)C1C(=O)CC(C2(SC)CC2)CC1=O` (stereo not shown) [cethoxydim, Cethoxydim], for which the “growth at 800 μM” value is reported as “unaffected” in assay [5] and “does not grow at all” in assay [2] (MJ 1.12, 800 μM inhibitor). In addition, the “in vitro inhibition of ACCase activity” value is given as “moderately inhibits” in assay [6]; “much stronger inhibitor” in assay [7]; “although not completely resistant, is less sensitive” at yeast ACCase. In addition, the “effect on growth” value in assay [2] is given as “completely inhibits growth”. For the same compound, the IC50 in assay [2] (Saccharomyces cerevisiae, MJ 1.12, YPR medium with 0.01% galactose, A600 24 hrs after inoculation, read-out: 50% inhibition of growth) was around 20 µM.
Take `CC(Oc1ccc(Oc2ccc(C(F)(F)F)cn2)cc1)C(=O)O` (stereo not shown) [fiuazifop, fluazifop]: the “inhibition of ACCase activity” value in [8] is given as “not inhibited”.
For the compound `CCC/C(=N\OCC)C1=C(O)CC(CC(C)SCC)CC1=O` (stereo not shown) [Sethoxydim], the “in vitro inhibition of ACCase activity” value in assay [6] is “does not inhibit”; in assay [7], “weakest inhibitor”; on yeast ACCase, “does not inhibit”. The “effect on growth” value in [2] was “no effect”.
